Experimental data from patent publication US20140315972A1, “RS)-2-(2-oxo-4-phenylpyrrolidin-1-yl)acetamide compound having modulatory activity with a commensurate effect, pharmaceutical substance (variants) and its application, composition (variants) thereof” (priority 2011, published 2014).
“And” between values parts separate entries of the source, which are not always exact repeats. Equal values may be shown once. Marks after values point to notes of the source that are not given here.

Tests used:
[1] = test system: cortisol; test: Plasma cortisol level (Tsf-activity) in August and Wistar rats; type: in vivo; settings: for Tsf-activity by cortisol at 3 hours vs control / plasma cortisol at 60 min / Tsf-activity by cortisol at 60 min vs control: i.p. 1.0-750 mg/kg, averaged
[2] = test system: rats; test: Scopolamine-induced CRPA amnesia, preventive and therapeutic use, adult male rats; type: in vivo
Excerpt: These findings are of great importance. In clinic, medications have to be prescribed more often already in the midst of disorders.

[3] = test system: acetylcholine nACh receptors (cortex); test: Receptor binding ex vivo on rat brain membrane preparations
Protocol: (§1) Studying the mechanisms of action of the preventive and curative effect of Phenotropil (100 mg/kg) with single and subchronic administration (for 7 days) in terms of receptor binding to dopamine (D1, D2, D3 in the striatum), serotonin (5-HT2—frontal cortex) glutamate (NMDA in the hippocampus), the GABAA benzodiazepine (BDZ—cortex) and acetylcholine (nACh—cortex) receptors was performed on membrane preparations isolated from various competent rat brain structures. The methods are well known and described. Baseline studies in normal state and during the anticholinergic scopolamine induced CRPA amnesia served as the comparison groups (Table 7.4 and 7.5).

[4] = test system: glutamate NMDA receptors (hippocampus); test: as above
Protocol: as §1

[5] = test system: rats; test: Carrageenan-induced paw edema; type: in vivo; settings: 100 mg/kg intragastrically 60 minutes before carrageenan
Protocol: To identify and assess the anti-inflammatory action of Phenotropil, a standard technique was used; the carrageenan-induced paw edema in rats (Winter C. et al, 1962). Phenotropil at a dose of 100 mg/kg was administered intragastrically 60 minutes before carrageenan. Control animals received distilled water. Additionally, the topical application by method of formalin induced edema was investigated (subplantar administration of 0.1 ml of 2% formalin solution). Phenotropil for topical use was prepared (1:1) on the standard ointment base carrier at 100 mg/kg of body weight for each animal (150-220 g). The preparation was rubbed in the leg and a gauze patch was applied for 2 hours and 1 hour before the induction of inflammation.

[6] = test system: MDA (malondialdehyde); test: Plasma TBA-MDA under negative stress (Ns, Ds); type: in vivo, rats; settings: for km % vs experimental control (saline): Ds seven days + 200 mg/kg, listed as Phenotropil
[7] = test system: mice; test: Fertility of female mice aged 510 days; type: in vivo
Protocol: Investigation of the effect of Phenotropil on the fertility of mice was performed in the spring period in females aged 510 days (30 animals per group). Termination of the reproductive age was established by placing every three females to a fertile male. Mating was determined by the presence of vaginal plugs. Females not mated during one month were included in the study. Throughout the entire study period (32 days), Phenotropil was administered one time per day intragastrically to the experimental group in a dose of 100 mg/kg with distilled water; the control animals received distilled water. On the eighth day of the experiment, the females were introduced to males in the following combination: two experimental and one control animal or […]. The procedure was repeated for females not covered at each stage. The same fertile males were not used for mating.

[8] = test system: women; test: Skin aging, vessels and joints, topical solution and creams; type: in vivo, human; settings: for Efficacy in % relative to baseline control (skin aging) / Efficacy in % (skin aging) / Efficacy expressed in % (age-related changes of blood vessels and joints) / Efficacy expressed in % (skin aging): humans, topical course; for Efficacy in % (skin aging): baseline control = 100.0; for Efficacy expressed in % (age-related changes of blood vessels and joints) / Efficacy expressed in % (skin aging): baseline control = 100
Protocol: Example 24 presents the results of research of Phenotropil as parapharmaceutic—cosmeceutical agents in women (age 53-60 years) and as a standard solution. The 0.1% water solution (distilled water) of Phenotropil and placebo was prepared; for convenience of preparing therapeutic cream formulation, the standard composition of cream base was used, or actual creams “Vecher”, “Lux” and “Gerantol” manufactured by “Svoboda” (Russia) were used as the base, with 100, 200, 300 mg of Phenotropil per 100 g of finished compositions to prepare a cosmeceutical agent. The cosmeceutical formulations were prepared with the powder of Compound 1 sifted and well ground in a mortar.
At baseline examination, main indicators of the skin condition of the hands and face in the groups were recorded, integral index for aggregate characteristics was calculated (dryness, wrinkling, superficial vascular fascicles, the intensity of subcutaneous vascular pattern, pigmentation—the intensity of color, the number of pigment spots and their total area). Preliminarily, each subject was tested for allergic skin reaction with the most concentrated formulation. No allergic reactions have been identified. In one group, only solution of Phenotropil was used in the morning and evening, applying a small amount (like a regular lotion) of the solution on cosmetic cotton pads and wiping the face and hands. In the other groups, this procedure was carried out before applying the Phenotropil-containing cream. The results of the baseline evaluation in each group were taken for 100.0%.

[9] = test system: mice; settings: animals; prior art Phenotropil products; cited from earlier work
[10] = 100.0 mg/kg before training + scopolamine
[11] = 100.0 mg/kg during training and scopolamine
[12] = 100 mg/kg after scopolamine-induced CRPA amnesia
[13] = nACh cortex, 100 mg/kg single dose during scopolamine amnesia
[14] = NMDA hippocampus, 100 mg/kg single dose during scopolamine amnesia
[15] = August rats, single Ns-exposure + 200 mg/kg
[16] = Wistar rats, single Ns-exposure + 200 mg/kg
[17] = 100 mg/kg i.g. daily, by the morning of day 9

NC(=O)CN1CC(c2ccccc2)CC1=O (racemic) [Compound 1, (RS)-2-(2-oxo-4-phenylpyrrolidine-1-yl)acetamide]
Tsf-activity by cortisol at 3 hours vs control ([1]; August rats): +6.8% | plasma cortisol at 60 min ([1]; August rats): 45.6 ± 4.1 nmol/L | Tsf-activity by cortisol at 60 min vs control ([1]; August rats, listed as (RS)-2-(2-oxo-4-phenylpyrrolidin-1-yl)acetamide): +14.1% | Tsf-activity by cortisol at 60 min vs control ([1]; August rats, listed as Phenotropil): +14.1* % | modulation factor change compared to the control ([1]; August rats, single dose): −11.5% | Tsf-activity by cortisol at 3 hours vs control ([1]; Wistar rats): −7.6% | plasma cortisol at 60 min ([1]; Wistar rats): 50.9 ± 4.4 nmol/L | Tsf-activity by cortisol at 60 min vs control ([1]; Wistar rats, listed as (RS)-2-(2-oxo-4-phenylpyrrolidin-1-yl)acetamide): +2.0% | biologically active dose (reliable effect on plasma cortisol), starting from ([1]; rats, i.p., range tested 0.5-750.0 mg/kg): ≥ 1.0 mg/kg | % of animals that did not enter into the dark chamber [2, 10]: 80% * | LP Pre-training [2, 10]: 17.0 ± 2.9 | LP of the training reproduction [2, 10]: 94.1 ± 8.7 | Number of animals that did not enter into the dark chamber [2, 10]: 16/20 | Time spent in the dark chamber [2, 10]: 49.9 ± 6.9 | % of animals that did not enter into the dark chamber [2, 11]: 70% * | LP Pre-training [2, 11]: 18.4 ± 3.3 | LP of the training reproduction [2, 11]: 91.1 ± 10.1 | Number of animals that did not enter into the dark chamber [2, 11]: 14/20 | Time spent in the dark chamber [2, 11]: 63.4 ± 12.5 | decrease in density of nACh receptors vs scopolamine amnesia [3, 12]: 46% | Bmax change vs saline CRPA control [3, 13]: +6% | Bmax change vs scopolamine amnesia group [3, 13]: −46% | Kd change vs saline CRPA control [3, 13]: +39.5% | Kd change vs scopolamine amnesia group [3, 13]: +14.4% | decrease in density of NMDA receptors vs scopolamine amnesia [4, 12]: 12% | Bmax change vs saline CRPA control [4, 14]: +69% | Bmax change vs scopolamine amnesia group [4, 14]: −12% | Kd change vs saline CRPA control [4, 14]: +18.4% | Kd change vs scopolamine amnesia group [4, 14]: +9.0% | shortening of inflammation vs control [5]: 52.3% | Optical density of the samples vs control ([6]; August rats, 200 mg/kg single, no Ns): +188.4 * % | km % vs outbred group ([6]; August rats, 200 mg/kg, normal conditions): 0% | increase of plasma MDA concentration vs baseline control ([6]; August rats, exposure to Ns): 2.2 times | plasma MDA higher than with Phenotropil without Ns ([6]; August rats, exposure to Ns): 17.0% | MDA content vs control [6, 15]: +223.0 * % | Optical density of the samples vs control [6, 15]: +220.3 * % | km % vs outbred group ([6]; August rats, three-time Ns + 200 mg/kg): +27.8% * | Optical density of the samples vs control ([6]; Wistar rats, 200 mg/kg single, no Ns): +66.5 * % | km % vs outbred group ([6]; Wistar rats, 200 mg/kg, normal conditions): 0% | km % vs experimental control (saline) ([6]; Wistar rats, 200 mg/kg): −65.6% and −65.6 *** % | reduction of MDA level vs baseline control without stress ([6]; Wistar rats, exposure to Ns): 6.0% | MDA content vs control [6, 16]: −6.0 * % | Optical density of the samples vs control [6, 16]: −6.0 * % | km % vs outbred group ([6]; Wistar rats, three-time Ns + 200 mg/kg): −33.3% * | km % vs experimental control (saline) ([6]; outbred rats, 200 mg/kg): −73.0% and −73.0 *** % | increase of species reserve of stability (intra-species Kt) in acute Ns-state ([6]; rats, during treatment): 12.5% | activation in August relative to Wistar strain ([6]; single injection, no stress): 2.9 times | females left uncovered (of 30) ([7]; 100 mg/kg i.g. daily, after 32 days): 6 | females covered (of 30) [7, 17]: 9 | females covered, % of the total number in the group [7, 17]: 30.0% | females covered (of 30) ([7]; 100 mg/kg i.g. daily, by the morning of day 17): 11 | females covered (of 30) ([7]; 100 mg/kg i.g. daily, by the morning of day 25): 4 | Fertility (% of animals in the group) ([7]; mice, 100 mg/kg): 80.0 * % | subjects with mild morning facial swelling ([8]; cream applied less than two hours before bedtime): 18.0% | Efficacy in % relative to baseline control (skin aging) ([8]; 50 mg + “Gerantol” cream 100 g): 132.0 * % | Efficacy in % (skin aging) ([8]; 50 mg + “Lux” cream 100 g): 167.0 * % | Efficacy expressed in % (age-related changes of blood vessels and joints) ([8]; 100 mg + 100 g of cream base): 211* % | Efficacy in % relative to baseline control (skin aging) ([8]; 100 mg + “Gerantol” cream 100 g): 205.0 * % | Efficacy in % (skin aging) ([8]; 100 mg + “Lux” cream 100 g): 210.0 * % | Efficacy expressed in % (skin aging) ([8]; 100 mg + “Vecher” cream 100 g): 317* % | Efficacy expressed in % (age-related changes of blood vessels and joints) ([8]; 200 mg + 100 g of cream base): 219* % | Efficacy in % relative to baseline control (skin aging) ([8]; 200 mg + “Gerantol” cream 100 g): 251.0 * % | Efficacy in % (skin aging) ([8]; 200 mg + “Lux” cream 100 g): 240.0 * % | Efficacy expressed in % (skin aging) ([8]; 200 mg + “Vecher” cream 100 g): 280* % | Efficacy expressed in % (age-related changes of blood vessels and joints) ([8]; 300 mg + 100 g of cream base): 174* % | Efficacy in % relative to baseline control (skin aging) ([8]; 300 mg + “Gerantol” cream 100 g): 277.0 * % | Efficacy in % (skin aging) ([8]; 300 mg + “Lux” cream 100 g): 280.0 * % | Efficacy expressed in % (skin aging) ([8]; 300 mg + “Vecher” cream 100 g): 249* % | Efficacy in % (skin aging) ([8]; aqueous solution 0.1%): 212.0* % | Efficacy in % (skin aging) ([8]; cream, 50 mg per 100 g of the base): 140.0 * % | Efficacy in % (skin aging) ([8]; cream, 100 mg per 100 g of the base): 180.0 * % | Efficacy in % (skin aging) ([8]; cream, 200 mg per 100 g of the base): 187.0 * % | Efficacy in % (skin aging) ([8]; cream, 300 mg per 100 g of the base): 200.0 * % | LD50 [9]: 800 mg/kg
